Measurements from patent US20120116069A1, “GLUCOSE METABOLISM-IMPROVING AGENT AND GLUCOSE METABOLISM-IMPROVING COMPOSITION” (LION CORPORATION, priority 2009, published 2012).

How the values were obtained:
[1] = tested on: human subjects having a fasting blood sugar level of 120 mg/dL to 140 mg/dL; test: Test of PT/PD intake for human: fasting and postprandial blood sugar level, blood indices; type: in vivo; conditions: for fasting blood sugar level: 8 mg capsule once a day for eight weeks; for fasting blood sugar level / postprandial blood sugar level: compared with the placebo-given group; for postprandial blood sugar level / 1-5AG / Glycoalbumin / HbA1c / Insulin (fasting): 8 mg capsule once a day; for postprandial blood sugar level: 30 min, 60 min and 120 min, starch food load
Method: (§1) Panax notoginseng powder (10 g) was suspended in 100 mL of 30% by mass aqueous solution of ethanol, and then saponins were extracted under heating for 2 hours. The obtained extract was hydrolyzed in the presence of hydrochloric acid to prepare an aglycon-containing product. The aglycon-containing product was treated with a silica gel column (SILICA GEL 60N, product of KANTO CHEMICAL CO., LTD.) to isolate and prepare panaxatriol (PT) having a purity of 99% by mass or higher.
Next, capsules each containing 8 mg of the thus-prepared panaxatriol (PT) were prepared. These capsules were given continuously for eight weeks to human subjects of a group (hereinafter may be referred to as “PT-given group”) to measure the fasting blood sugar level and a change in postprandial blood sugar level which was measured after giving to the human subjects predetermined meals such as a meal containing an excessive amount of starch food (e.g., a rice ball formed of 200 g of cooked rice (350 kcal)). Also, the blood indices measured were the blood HbA1c level, the blood glycoalbumin level, the blood 1·5AG level and the fasting blood insulin level.
The blood sugar levels were measured with a simplified blood sugar meter FREESTYLE (product of NIPRO Co.). The fasting blood sugar level and the fasting insulin level were measured at 9 a.m. The postprandial blood sugar level was measured every 30 min for 120 min from 9 a.m. to 11:30 a.m. after the predetermined starch food had been given to the subjects. The HbA1c, glycoalbumin and 1·5AG levels were measured by a routine method of a medical facility using the blood sampled at 9 a.m.
(§2) The 24 subjects were randomly divided to two groups and assigned to a placebo-given group, serving as a control, and a PT-given group. Also, the results were statistically analyzed using the Student's t-test comparing the placebo-given group and the PT-given group. The time at which the capsules were given was set to 10 a.m. every day so that the capsules were not given at the same time as a meal.
as §1, with “panaxadiol (PD)” for “panaxatriol (PT)”
Next, capsules each containing 8 mg of the thus-prepared panaxadiol (PD) were prepared. These capsules were given continuously for eight weeks to human subjects of a group (hereinafter may be referred to as “PD-given group”) to measure the fasting blood sugar level and a change in postprandial blood sugar level which was measured after giving to the human subjects predetermined meals such as a meal containing an excessive amount of starch food (e.g., a rice ball formed of 200 g of cooked rice (350 kcal)). Also, the blood indices measured were the blood HbA1c level, the blood glycoalbumin level, the blood 1·5AG level and the fasting blood insulin level.
as §2, with “and a PD-given group. Also,” for “and a PT-given group. Also,”, “and the PD-given group. The” for “and the PT-given group. The”, “time as the meal.” for “time as a meal.”

[2] = tested on: model mice of hyperglycemia (KKAy mouse); test: Amount of 13CO2 excreted in exhaled gas after oral glucose-U-13C6; type: in vivo; conditions: 0.1% by mass in high fat diet for one week, four hours after oral glucose-U-13C6, versus control group
Method: Twenty-four model mice of hyperglycemia (KKAy mouse (product of CLEA Japan, Inc.), male, four weeks old) were preliminarily bred for one week in individual cages under the following conditions: temperature: room temperature (22° C.±1° C.), humidity: 50%±5%, and light-dark cycle: 12 hours. Eight grams per day of CE-2 (product of CLEA Japan, Inc.) was given to each mouse as feed during the preliminary breeding, while water was given ad libitum. […] Thereafter, an aqueous solution of glucose and glucose-U-^13C6 was orally administered to each mouse at a concentration calculated from the following: [2.0 g D-glucose (product of NACALAI TESQUE, INC.)+72 mg D-glucose-U-^13C6 (99%) (product of Cambridge Isotope Lab.)/kg-body weight]. Then, the cumulative amount of ^13CO2 excreted was measured for four hours. The cumulative amount of ^13CO2 excreted is expressed as AUC (increment in the amount of ^13CO2 excreted). Here, the AUC (increment in the amount of ^13CO2 excreted) refers to an area corresponding to the increment between the amount of ^13CO2^3 excreted prior to administration of glucose-U-^13C6 (baseline) to the amount of ^13CO2 excreted measured four hours after administration of glucose-U-^13C6 in a graph where a change in the amount of ^13CO2 excreted is plotted against time after administration of glucose-U-^13C6.

SMILES | fasting blood sugar level [1] | postprandial blood sugar level [1] | 1-5AG ([1]; Week 0) | Glycoalbumin ([1]; Week 0) | HbA1c ([1]; Week 0) | Insulin (fasting) ([1]; Week 0) | 1-5AG ([1]; Week 2) | Glycoalbumin ([1]; Week 2) | HbA1c ([1]; Week 2) | Insulin (fasting) ([1]; Week 2) | 1-5AG ([1]; Week 4) | Glycoalbumin ([1]; Week 4) | HbA1c ([1]; Week 4) | Insulin (fasting) ([1]; Week 4) | 1-5AG ([1]; Week 8) | Glycoalbumin ([1]; Week 8) | HbA1c ([1]; Week 8) | Insulin (fasting) ([1]; Week 8) | amount of 13CO2 excreted [2]
CC1(C)CCC[C@](C)([C@H]2CC[C@]3(C)[C@@H]2[C@H](O)C[C@@H]2[C@@]4(C)CC[C@H](O)C(C)(C)[C@@H]4CC[C@]23C)O1 [PD, panaxadiol] | decreased significantly | decrease significantly | 24.4 ± 7.8 µg/mL | 14.8 ± 1.4 % by mass | 5.1 ± 0.1 % by mass | 5.6 ± 1.4 μU/mL | 24.1 ± 7.2 µg/mL | 14.5 ± 1.2 % by mass | 5.1 ± 0.2 % by mass | 5.9 ± 2.2 μU/mL | 25.0 ± 7.3 µg/mL | 14.3 ± 1.3 % by mass | 5.1 ± 0.1 % by mass | 5.9 ± 3.8 μU/mL | 25.7 ± 6.4 µg/mL | 14.2 ± 1.1 % by mass | 4.8 ± 0.1 % by mass | 6.1 ± 2.6 μU/mL | significantly increased
CC1(C)CCC[C@](C)([C@H]2CC[C@]3(C)[C@@H]2[C@H](O)C[C@@H]2[C@@]4(C)CC[C@H](O)C(C)(C)[C@@H]4[C@@H](O)C[C@]23C)O1 [PT, panaxatriol] | decreased significantly | decrease significantly | 24.3 ± 7.7 µg/mL | 14.7 ± 1.3 % by mass | 5.1 ± 0.1 % by mass | 5.5 ± 1.5 μU/mL | 24.2 ± 7.1 µg/mL | 14.5 ± 1.3 % by mass | 5.1 ± 0.2 % by mass | 6.1 ± 2.1 μU/mL | 25.0 ± 7.5 µg/mL | 14.3 ± 1.3 % by mass | 5.1 ± 0.1 % by mass | 5.8 ± 4.2 μU/mL | 25.6 ± 6.3 µg/mL | 14.2 ± 1.3 % by mass | 4.8 ± 0.2 % by mass | 6.2 ± 2.4 μU/mL | significantly increased
